Tests used:
[1] = biological target: T1, glucose dehydrogenase (GlucDH) (Bacillus subtilis, UniProt P12310); assay: Glucose dehydrogenase (GlucDH) activity assay with NAD derivative as cofactor; type: biochemical; conditions: for U/ml: GlucDH 0.002 mg/ml (NAD)
Experimental: In order to examine the role of pNAD as a cofactor for glucose dehydrogenase (GlucDH), a glucoseDH activity assay in 0.1 M Tris/0.2 M NaCl (pH 8.5) buffer was carried out. The concentration of glucose was 80 mM. pNAD and NAD concentrations of 0.05-0.5 mM were used. To this, 10 mg/ml (pNAD) or 0.002 mg/ml (NAD) [83 or 0.017 μM respectively] GlucDH was added. The assay was carried out at room temperature and the enzymatic reaction was monitored by recording absorption spectra at regular time intervals. The values shown in table 1 refer to an absorption measurement after 4 min.
A glucose dehydrogenase activity assay for cNAD compared to NAD was carried out as described under B) for pNAD. For this purpose glucose dehydrogenase concentrations of […] and 0.002 mg/ml (NAD) [0.83 and 0.017 μM respectively] were used.

[2] = Examination of the stability of carbaNAD (stressing in solution, HPLC); type: physicochemical; conditions: 10 mM solution, pH 8, 0.1 M potassium phosphate buffer, 8° C. and 37° C., after 0.25, 75 and 175 h
Experimental: A 10 mM solution of carbNAD and/or NAD is stressed at pH 8 in 0.1 M potassium phosphate buffer. The content is determined by means of HPLC chromatography after 0.25, 75 and 175 h.
Buffer A: 100 mM KHPO4+10 mM tetrabutylammonium hydrogen sulfate, pH 6.9 buffer B: buffer A+acetonitrile 1:1 flow rate 1.0 ml/min detection: 254 nm […]
gradient: in 40 min to 35% buffer B, hold for 2 min and then change to 0% buffer A within 3 min.

[3] = Investigation of the stability of pNAD (incubation at 50° C., HPLC); type: physicochemical; conditions: 0.15 M KPO4, 1 M NaCl buffer (pH 7.0)
Experimental: In order to examine the stability of pNAD compared to NAD, the same amounts of NAD and pNAD were each taken up in 0.15 M KPO4, 1 M NaCl buffer (pH 7.0) and incubated at 50° C. The decomposition of NAD and/or pNAD were monitored by HPLC.

[4] = biological target: T1, glucose dehydrogenase (GlucDH); assay: Glucose dehydrogenase (GlucDH) activity assay with NAD derivative as cofactor; type: biochemical; conditions: 0.05 mM (p)NAD; 80 mM glucose; 0.1 M Tris/0.2 M NaCl pH 8.5; room temperature; absorption after 4 min; GlucDH 0.02 mg/ml (NAD), 10 mg/ml (pNAD)
[5] = 0.05 mM (c)NAD, relative to NAD = 100
[6] = 0.05 mM (p)NAD, relative to NAD = 100, 80 mM glucose, pH 8.5, after 4 min
[7] = 0.1 mM (c)NAD, relative to NAD = 100
[8] = 0.4 mM (p)NAD, relative to NAD = 100, 80 mM glucose, pH 8.5, after 4 min

T1 sequence (P12310 whole entry): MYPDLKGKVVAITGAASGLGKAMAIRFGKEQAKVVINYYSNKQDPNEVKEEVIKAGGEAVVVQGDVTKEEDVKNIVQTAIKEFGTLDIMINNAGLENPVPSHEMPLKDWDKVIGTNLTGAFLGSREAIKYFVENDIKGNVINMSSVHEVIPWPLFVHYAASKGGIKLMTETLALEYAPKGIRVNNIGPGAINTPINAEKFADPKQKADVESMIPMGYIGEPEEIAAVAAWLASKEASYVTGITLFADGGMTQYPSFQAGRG

Structure (SMILES)	activity at 50 µM [1, 5] [%]	activity at 50 µM [1, 6] [%]	activity at 100 µM [1, 7] [%]	activity at 400 µM [1, 8] [%]	U/ml ([1]; 0.05 mM (c)NAD, assay as for pNAD, 0.1 mg/ml (cNAD)) [U/ml]	% activity [1, 5] [%]	U/ml ([1]; 0.1 mM (c)NAD, assay as for pNAD, 0.1 mg/ml (cNAD)) [U/ml]	% activity [1, 7] [%]	stability (occurrence of decomposition products, HPLC area percentages) [2]	U/ml ([1]; 0.4 mM (p)NAD, 80 mM glucose, 0.1 M Tris/0.2 M NaCl pH 8.5, room temperature, absorption after 4 min, 10 mg/ml (pNAD)) [U/ml]	stability (percentage areas of (p)NAD compared to time zero, HPLC) [3]	U/ml [4] [U/ml]
NC(=O)c1ccc[n+]([C@@H]2O[C@H](COP(=O)([O-])OP(=O)(O)OC[C@H]3O[C@@H](n4cnc5c(N)ncnc54)[C@H](O)[C@@H]3O)[C@@H](O)[C@H]2O)c1 [NAD, nicotinamide adenine dinucleotide, reference compound]	100	100	100	100	–	–	–	–	–	–	–	–
NC(=O)c1ccc[n+]([C@@H]2C[C@H](COP(=O)([O-])OP(=O)(O)OC[C@H]3O[C@@H](n4cnc5c(N)ncnc54)[C@H](O)[C@@H]3O)[C@@H](O)[C@H]2O)c1 [cNAD, carbaNAD]	–	–	–	–	2.7	0.63	5.3	0.95	very stable compared to NAD	–	–	–
NC(=O)c1ccc[n+]([C@@H]2CN[C@H](COP(=O)([O-])OP(=O)(O)OC[C@H]3O[C@@H](n4cnc5c(N)ncnc54)[C@H](O)[C@@H]3O)C2)c1 [pNAD, Pyrrolidinyl-NAD]	–	3e-05	–	0.00015	–	–	–	–	–	0.0024	very stable compared to NAD	0.00017

From US9399790B2, “Stable NAD/NADH derivatives” (Roche Diabetes Care, Inc., priority 2006, dated 2016)
